Measurements reported in patent US12617779B2, “Self degradation-type CDK9 inhibitor prodrug and liposome encapsulating same” (Sumitomo Pharma Co., Ltd., priority 2021, dated 2026).

Assay: Evaluation of conversion rate to active form in buffer solution (Experimental Example 1)
Format: physicochemical
Method in brief: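 25 umol/L cpd, 37° C; 50 mM citrate pH 5.0/5.5, 50 mM phosphate pH 6.0/6.5/7.0/7.4. HPLC at 0–3 h: residual rate and Alvocidib production rate.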

CN1CC[C@H](c2c(O)cc(O)c3c(=O)cc(-c4ccccc4Cl)oc23)[C@H](OC(=O)[C@@H](N)CO)C1 [Comparative Example 9, reference compound]
Production rate of Alvocidib (pH5.0, 0 hr): 5.0%
Residual rate (pH5.0, 0 hr): 85.7%
Stability in buffer solution at pH 5 (pH 5, 37° C., up to 2 or 3 hours): unstable
Production rate of Alvocidib (pH5.0, 0.5 hr): 7.1%
Residual rate (pH5.0, 0.5 hr): 84.0%
Production rate of Alvocidib (pH5.0, 1 hr): 8.7%
Residual rate (pH5.0, 1 hr): 82.6%
Production rate of Alvocidib (pH5.0, 2 hr): 12.8%
Residual rate (pH5.0, 2 hr): 79.4%
Production rate of Alvocidib (pH5.0, 3 hr): 15.6%
Residual rate (pH5.0, 3 hr): 77.0%
Production rate of Alvocidib (pH5.5, 0 hr): 4.9%
Residual rate (pH5.5, 0 hr): 86.0%
Production rate of Alvocidib (pH5.5, 0.5 hr): 8.5%
Residual rate (pH5.5, 0.5 hr): 83.3%
Production rate of Alvocidib (pH5.5, 1 hr): 11.3%
Residual rate (pH5.5, 1 hr): 81.1%
Production rate of Alvocidib (pH5.5, 2 hr): 17.7%
Residual rate (pH5.5, 2 hr): 78.4%
Production rate of Alvocidib (pH5.5, 3 hr): 22.4%
Residual rate (pH5.5, 3 hr): 74.2%
Production rate of Alvocidib (pH6.0, 0 hr): 5.0%
Residual rate (pH6.0, 0 hr): 86.0%
Production rate of Alvocidib (pH6.0, 0.5 hr): 17.1%
Residual rate (pH6.0, 0.5 hr): 76.5%
Production rate of Alvocidib (pH6.0, 1 hr): 26.0%
Residual rate (pH6.0, 1 hr): 69.2%
Production rate of Alvocidib (pH6.0, 2 hr): 43.4%
Residual rate (pH6.0, 2 hr): 53.9%
Production rate of Alvocidib (pH6.0, 3 hr): 54.0%
Residual rate (pH6.0, 3 hr): 44.3%
Production rate of Alvocidib (pH6.5, 0 hr): 5.1%
Residual rate (pH6.5, 0 hr): 86.0%
Production rate of Alvocidib (pH6.5, 0.5 hr): 20.9%
Residual rate (pH6.5, 0.5 hr): 74.7%
Production rate of Alvocidib (pH6.5, 1 hr): 31.1%
Residual rate (pH6.5, 1 hr): 66.2%
Production rate of Alvocidib (pH6.5, 2 hr): 49.6%
Residual rate (pH6.5, 2 hr): 49.4%
Production rate of Alvocidib (pH6.5, 3 hr): 60.2%
Residual rate (pH6.5, 3 hr): 39.1%
Production rate of Alvocidib (pH7.0, 0 hr): 5.3%
Residual rate (pH7.0, 0 hr): 85.9%
Production rate of Alvocidib (pH7.0, 0.5 hr): 21.7%
Residual rate (pH7.0, 0.5 hr): 75.8%
Production rate of Alvocidib (pH7.0, 1 hr): 30.7%
Residual rate (pH7.0, 1 hr): 68.1%
Production rate of Alvocidib (pH7.0, 2 hr): 47.2%
Residual rate (pH7.0, 2 hr): 52.8%
Production rate of Alvocidib (pH7.0, 3 hr): 57.1%
Residual rate (pH7.0, 3 hr): 42.9%
Production rate of Alvocidib (pH7.4, 0 hr): 5.6%
Residual rate (pH7.4, 0 hr): 85.3%
Production rate of Alvocidib (pH7.4, 0.5 hr): 22.1%
Residual rate (pH7.4, 0.5 hr): 76.2%
Production rate of Alvocidib (pH7.4, 1 hr): 29.7%
Residual rate (pH7.4, 1 hr): 70.3%
Production rate of Alvocidib (pH7.4, 2 hr): 44.0%
Residual rate (pH7.4, 2 hr): 56.0%
Production rate of Alvocidib (pH7.4, 3 hr): 53.3%
Residual rate (pH7.4, 3 hr): 46.7%
